The text below walks through data of patent US5326902A, “Oxyalkyne compounds, pharmaceutical compositions containing them and processes for preparing such compounds and compositions” (Gruenenthal GmbH, priority 1992, dated 1994).

The target in experiment [1] is T1, 5-lipoxygenase (Rattus norvegicus, UniProt P12527).
T1 construct: endogenous in cells; host or cells: RBL-1 cells (rat basophilic leukemia)
T1 sequence (P12527 1-673): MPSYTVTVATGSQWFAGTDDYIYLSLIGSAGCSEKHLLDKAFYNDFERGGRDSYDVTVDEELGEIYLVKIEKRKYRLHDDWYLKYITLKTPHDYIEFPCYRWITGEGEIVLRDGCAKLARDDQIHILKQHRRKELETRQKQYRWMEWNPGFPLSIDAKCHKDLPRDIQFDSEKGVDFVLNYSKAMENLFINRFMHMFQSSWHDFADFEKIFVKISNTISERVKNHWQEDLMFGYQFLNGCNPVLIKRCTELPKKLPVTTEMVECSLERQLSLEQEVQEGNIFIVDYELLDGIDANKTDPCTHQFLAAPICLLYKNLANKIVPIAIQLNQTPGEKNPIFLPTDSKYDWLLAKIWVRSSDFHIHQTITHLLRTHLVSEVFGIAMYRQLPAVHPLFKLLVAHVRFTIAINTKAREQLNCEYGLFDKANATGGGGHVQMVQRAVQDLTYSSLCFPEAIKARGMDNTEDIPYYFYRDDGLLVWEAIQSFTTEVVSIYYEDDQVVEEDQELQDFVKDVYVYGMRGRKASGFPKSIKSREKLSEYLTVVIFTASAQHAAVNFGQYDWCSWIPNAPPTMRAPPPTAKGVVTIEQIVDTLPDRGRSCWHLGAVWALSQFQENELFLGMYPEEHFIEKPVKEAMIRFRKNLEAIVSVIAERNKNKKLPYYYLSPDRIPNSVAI
Put plainly: Inhibition of 5-lipoxygenase in RBL-1-cells. The class given is cell-based. The settings on record: 20 μM [14C]-arachidonic acid, 20 μM calcium ionophore A 23 187, 10 minutes. The protocol: To determine the inhibition of 5-lipoxygenase, rat basophilic leukemia cells (RBL-1-cells) were cultured in vitro, harvested by centrifugation, washed with 50 mM potassium phosphate buffer of pH 7.4, and then suspended in this buffer at 1×10^7 cells/ml. Indomethacin (10 μM) and calcium chloride (2 mM) were added to 1 ml portions of this suspension, and then the mixture was incubated either in the presence of a compound according to the invention in a concentration range of from 0,1 μM to 100 μM or in the presence of a solvent (ethanol and/or dimethyl sulfoxide) for 3 minutes and thereafter with 20 μM of [^14 C]-arachidonic acid and 20 μM of calcium ionophore A 23 187 for 10 minutes. The reaction was stopped by adding 20 μl of glacial acetic acid, and then the mixture was extracted with ethyl acetate to isolate the metabolites of arachidonic acid formed by the enzymatic action of 5-lipoxygenase. These were separated by thin layer chromatography using a solvent mixture known to be suitable for lipoxygenase products [c.f. Jakschik et al., Biochem. Biophys. Res. Commun. 102, 624 (1981)].
The distribution of radioactivity among the different metabolites of arachidonic acid was measured using a TLC Linear Analyzer. By correlating the percentage amounts of the products formed under the action of 5-lipoxygenase (5HETE, isomers of LTB4) in the absence as well as in the presence of different concentrations of compounds according to the invention, the IC50 -values, i.e. the concentrations which cause a 50% inhibition of 5-lipoxygenase, were determined graphically from semilogarithmic plots.

Experiment [2] deals with T1, 5-lipoxygenase. Put plainly: Inhibition of Cell-free 5-lipoxygenase from RBL-1-cells (polarographic, 10,000 × g supernatant). The class given is biochemical. The settings on record: 10,000 × g supernatant of homogenized RBL-1-cells; arachidonic acid 75 μM; 35° C.; calculated IC50. The protocol:
Cell-free 5-lipoxygenase was polarographically measured from 10,000 × g supernatant of homogenized rat basophilic leucemia cells (M. Haurand & L. Flohe in Biol. Chem. Hoppe-Seyler 369, 133 to 142 (1988)). After preincubation of the 10,000 × g supernatant with arachidonic acid (75 μM), ATP (adenosine triphosphate; 4 mM), reduced glutathione (4 mM), and either a compound according to the invention (0.1 to 100 μM) or a solvent (ethanol and/or dimethyl sulfoxide) at 35° C. for 5 minutes, the lipoxygenase reaction was initiated by addition of calcium chloride (3 mM) and simultaneously recorded.
The activity of 5-lipoxygenase was determined from the difference in the pO2 -decrease before and after addition of calcium chloride. The evaluation included the initial rate of the reaction after the lag-phase as well as the duration of the lag-phase. In the concentration range of from 3 to 50 μM, the test substances induced lag-phases between 20 and 60 seconds.

Experiment [3] has as its system bronchoconstriction elicited by ovalbumin. Put plainly: Allergen-induced bronchoconstriction in guinea pigs (Konzett-Rossler). The settings on record: Cavia porcellus, 1 h; oral, 60 minutes before ovalbumin (0.2 mg/kg intravenous); passively sensitized guinea pigs; read-out: ED40-Value (40% average inhibition of the bronchoconstriction elicited by ovalbumin). The class given is in vivo, guinea pig. The protocol: The anti-asthmatic effect of compounds according to the invention was tested in anesthetized and ventilated guinea pigs. To induce an asthmatic reaction, the animals were passively sensitized by a single intraperitoneal injection of anti-ovalbumin serum. After 48 hours, the asthmatic reaction was elicited by intravenous challenge with 0.2 mg/kg of ovalbumin. The immediately resulting bronchoconstriction was measured as an increase in intratracheal pressure. Effects caused by histamine, serotonin and sympathic counterreaction were eliminated by intravenous pretreatment with 2.15 mg/kg of mepyramine, 46.4 μg/kg of propranolol, 4.64 mg/kg of atropine and 1 mg/kg of methysergide, all administered 5 minutes before challenge. Compounds according to the invention were administered orally 60 minutes before the administration of ovalbumin. The following […] for the inhibition of the bronchoconstriction elicited by ovalbumin, i.e. the effective doses causing a 40% average inhibition of the bronchoconstriction, were determined: […]

Experiment [4] has as its system 5-lipoxygenase. Description: Inhibition of 5-lipoxygenase in Rat Blood After Oral Administration (ex vivo iLTB4-formation). The settings on record: 21.5 mg/kg oral, male Wistar rats, one hour after administration. How it is done: The bioavailability of the compounds of formula I as 5-lipoxygenase inhibitors was characterized by means of an ex vivo biochemical assay method described by Tateson et al. in Brit. J. Pharmacol. 94, 528 (1988): A compound of formula I was orally administered to male rats (Wistar strain) at a dose of 21.5 mg/kg. After lethal CO2 -narcosis one hour after administration, the rats were bled by heart puncture with added heparin as an anticoagulant. Aliquots of the whole blood were incubated at 37° C. for 30 minutes in a water bath with calcium ionophore A 23 187 at an end concentration of 15 μg/ml. At the end of the incubation, the samples were centrifuged, and the concentration of the immunoreactive LTB4 (iLTB4) in aliquots of cell-free plasma was determined by radioimmunoassay (3H-LTB4 -RIA, Amersham). To enable calculation of the inhibition in percent of ex vivo iLTB4 -formation in whole rat blood treated with a compound according to the invention, rats orally treated with an appropriate vehicle solution were included in all experiments, and aliquots of their blood were run in parallel and were processed in the same way as described. The average iLTB4 -content of the plasma of the vehicletreated rats served as a 100% value. The activity in percent of the ex vivo iLTB4 -formation after oral administration of a compound according to the invention was calculated by dividing the average value of the iLTB4 -contents in ng iLTB4 /ml of the group treated with a compound according to the invention by the average value of the iLTB4 -contents in ng iLTB4 /ml of the vehicle treated group and subsequent multiplication by a factor of 100. The respective inhibition in percent was calculated by subtracting the activity in percent from 100.

Experiment [5] addresses T2, 12-lipoxygenase (Homo sapiens, UniProt P18054).
T2 sequence (P18054 1-663): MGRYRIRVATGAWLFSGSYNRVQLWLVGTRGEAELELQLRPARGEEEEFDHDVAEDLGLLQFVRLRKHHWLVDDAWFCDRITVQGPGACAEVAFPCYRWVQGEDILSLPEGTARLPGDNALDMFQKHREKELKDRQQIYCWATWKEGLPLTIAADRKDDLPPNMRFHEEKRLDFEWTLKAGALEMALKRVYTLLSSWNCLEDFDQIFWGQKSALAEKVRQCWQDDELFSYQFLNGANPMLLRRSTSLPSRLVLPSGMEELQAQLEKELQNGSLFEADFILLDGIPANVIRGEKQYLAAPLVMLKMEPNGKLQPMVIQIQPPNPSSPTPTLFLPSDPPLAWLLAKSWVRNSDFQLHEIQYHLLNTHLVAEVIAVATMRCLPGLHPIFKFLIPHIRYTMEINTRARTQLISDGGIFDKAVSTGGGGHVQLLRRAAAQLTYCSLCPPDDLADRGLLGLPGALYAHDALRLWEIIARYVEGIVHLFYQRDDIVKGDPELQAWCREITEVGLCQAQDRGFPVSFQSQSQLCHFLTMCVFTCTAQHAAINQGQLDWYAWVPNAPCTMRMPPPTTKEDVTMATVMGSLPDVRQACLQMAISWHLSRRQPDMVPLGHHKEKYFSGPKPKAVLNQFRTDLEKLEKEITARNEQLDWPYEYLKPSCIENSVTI
Put plainly: Inhibition of 12-lipoxygenase in human blood. Also noted: 3 ml aliquots of human whole blood treated with heparin; from tissue; host or cells: human whole blood (heparinized). The class given is cell-based. The settings on record: human whole blood; calcium ionophore A 23 187 15 μg/ml; 37° C., 30 minutes; 12-HETE by HPLC. How it is done:
3 ml aliquots of human whole blood treated with heparin were incubated either with a compound according to the invention or with dimethyl sulfoxide at 37° C. for 5 minutes. Then 12-lipoxygenase was activated by addition of calcium ionophore A 23 187 (15 μg/ml blood). After incubation at 37° C. for 30 minutes and centrifugation, cell-free plasma was obtained. Plasma protein was precipitated by addition of 2 ml of ethanol per ml of plasma and then separated by centrifugation. After adjusting the ethanol content in the supernatant with water to 10% by volume, the 12-lipoxygenase product 12-HETE was enriched by solid phase extraction using an octadecyl silica column. The methanolic eluate was evaporated to dryness, diluted in 40% by volume of methanol, and the 12-HETE-content was determined by HPLC. The IC50 -values of the compounds of the invention prepared according to Examples 1, 8 and 16 were 2, 4 and 3 μmolar, respectively.

As usually defined, the IC50 is the midpoint of a concentration-inhibition curve. As to `NC(=O)N(O)Cc1ccc(C(O)C#Cc2ccc(F)cc2)cc1` (racemic) [Example 25, N-Hydroxy-N-[4-[1-hydroxy-3-(4-fluorophenyl)prop-2-yn-1-yl]benzyl]urea], the IC50 in experiment [1] and in experiment [2] was 3 µM in each case. For the same compound, the ED40 in experiment [3] was found to be 10 mg/kg.

Take `NC(=O)N(O)Cc1ccc(C(O)C#Cc2ccccc2)cc1` (centres unmarked) [Example 8, N-Hydroxy-N-[4-[1-hydroxy-3-phenyl-prop-2-yn-1-yl]benzyl]urea]: the IC50 in experiment [1] is 7 µM; in experiment [2], 8 µM; in experiment [5], 4 µM. Moreover, the “Inhibition [%] of ex vivo iLTB4-formation” value in experiment [4] is recorded as 65%.

Regarding `CC(=O)N(O)Cc1ccc(C(O)C#Cc2cccs2)cc1` (centres unmarked) [Example 16, N-Hydroxy-N-[4-[1-hydroxy-3-(2-thienyl)prop-2-yn-1-yl]benzyl]acetamide], the IC50 in experiment [1] is 3 µM; in experiment [2], 6 µM; in experiment [5], 3 µM.

Turning to `COc1cccc(C#CC(O)c2ccc(CN(O)C(N)=O)cc2)c1` (centres unmarked) [Example 26, N-Hydroxy-N-[4-[1-hydroxy-3-(3-methoxyphenyl)prop-2-yn-1-yl]benzyl]urea], the IC50 in experiment [1] was 4 µM. For the same compound, in experiment [3], the ED40 was 17 mg/kg.

Take `NC(=O)N(O)Cc1ccc(C(O)C#Cc2ccsc2)cc1` (centres unmarked) [Example 28, N-Hydroxy-N-[4-[1-hydroxy-3-(3-thienyl)prop-2-yn-1-yl]benzyl]urea]: the IC50 in experiment [1] worked out at 4 µM. Moreover, in experiment [3], the ED40 amounted to 17 mg/kg.
